Data on 22 compounds can be found in patent US20180092866A1, “SUBSTITUTED N-([1,1'-BIPHENYL]-3-YL)-[1,1'-BIPHENYL]-3-CARBOXAMIDE ANALOGS AS INHIBITORS FOR BETA-CATENIN/B-CELL LYMPHOMA 9 INTERACTIONS” (University of Utah Research Foundation, priority 2015, published 2018).

As a reminder, the Ki is a measure of affinity in units of concentration, obtained from inhibition or displacement.

Where a name gives a salt, the structure may show the parent alone.

One assay addresses T1, β-catenin/BCL9 protein-protein interactions (Homo sapiens, UniProt P35222).
T1 construct: C-terminally His6-tagged wild-type or mutant β-catenin (residues 138-686) proteins; made in house; host or cells: E. coli BL21 DE3
T1 sequence (P35222 138-686): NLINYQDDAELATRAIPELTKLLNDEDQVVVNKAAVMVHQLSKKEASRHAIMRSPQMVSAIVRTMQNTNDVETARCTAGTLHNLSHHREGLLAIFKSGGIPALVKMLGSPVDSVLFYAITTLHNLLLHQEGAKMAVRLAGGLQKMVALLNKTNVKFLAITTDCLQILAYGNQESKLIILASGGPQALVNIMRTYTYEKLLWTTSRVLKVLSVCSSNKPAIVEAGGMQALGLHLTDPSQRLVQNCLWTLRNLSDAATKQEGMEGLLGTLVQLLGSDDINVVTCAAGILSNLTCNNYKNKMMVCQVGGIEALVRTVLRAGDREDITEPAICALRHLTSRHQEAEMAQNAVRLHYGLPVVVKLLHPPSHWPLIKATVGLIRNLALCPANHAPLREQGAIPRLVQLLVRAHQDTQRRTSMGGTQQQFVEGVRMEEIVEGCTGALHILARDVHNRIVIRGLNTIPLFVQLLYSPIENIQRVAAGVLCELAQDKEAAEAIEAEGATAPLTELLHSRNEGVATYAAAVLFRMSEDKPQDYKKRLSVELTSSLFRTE
As to the kind of experiment: AlphaScreen competitive inhibition assay, wild-type β-catenin/BCL9. The class given is binding. Particulars: AlphaScreen assay, comparison with named compound. The protocol:
The purity of the wild-type and mutant β-catenin proteins was all greater than 95% as determined by the SDS-PAGE gel analysis. Both the wild-type and mutant β-catenin proteins are stable under the testing conditions. Native non-denaturing gel electrophoresis was performed to confirm the homogeneity of the purified proteins. Experiments were performed in white opaque 384-well plates from PerkinElmer, and the samples were read on a Synergy 2 plate reader (Biotek) with a sensitivity setting of 200 using AlphaScreen protocol with excitation at 680 nm and emission at 570 nm. All dilutions were made in 1×assay buffer containing 25 mM HEPES (pH=7.0), 100 mM NaCl, 0.01% Triton X-100, and 0.1% BSA. In the AlphaScreen competitive inhibition assay, 40 nM of C-terminally His6-tagged wild-type or mutant β-catenin (residues 138-686) proteins was incubated with 5 nM of N-terminal biotinylated human BCL9 26-mer (residues 350-375) for 30 min at 4° C., and then different concentrations of the tested inhibitors in the assay buffer were added to make a final volume of 20 μL. The mixture was incubated at 4° C. for 2 h. The donor and acceptor beads were added to a final concentration of 10 μg/mL in 25 μL of assay buffer. The mixture was incubated at 4° C. for 1 h. The IC50 value was determined by nonlinear least-square analysis of GraphPad Prism 5.0. […] The Ki values were derived from the IC50 values by a reported method (Nikolovska-Coleska et al. (2004) Anal. Biochem. […]: 261-273). Experiments were performed in triplicate and carried out in the presence of 1% DMSO.
(In Alpha technology, singlet oxygen from a donor bead excites a nearby acceptor bead.)
For `Cl.NCc1ccc(C(N)=O)cc1-c1ccc(F)cc1` [Compound 7, (5-Carbamoyl-4′-fluoro-[1,1′-biphenyl]-2-yl)methanaminium chloride], the “relative inhibitory potency for β-catenin/BCL9 PPIs (in words)” value is “less potent than 6”.
Consider `NC(=O)c1ccc(CCCO)c(-c2ccc(F)cc2)c1` [Compound 8, 4′-Fluoro-6-(3-hydroxypropyl)-[1,1′-biphenyl]-3-carboxamide], for which the “relative inhibitory potency for β-catenin/BCL9 PPIs (in words)” value is recorded as “less potent than 6”.
The same measure, in the same setting: as for `Cl.NCCOc1ccc(C(=O)Nc2cccc(-c3ccc(F)cc3)c2)cc1-c1ccc(F)c(F)c1` [Compound 13, 2-((3′,4′-Difluoro-5-((4′-fluoro-[1,1′-biphenyl]-3-yl)carbamoyl)-[1,1′-biphenyl]-2-yl)oxy) ethanaminium chloride], the entry is “higher potency than 14”.
Same read-out and setting: the same measure for `Cl.Cl.NCCOc1ccc(NC(=O)c2ccc(OCCN)c(-c3ccc(F)c(F)c3)c2)cc1-c1ccc(F)cc1` [Compound 17, 2-((5-(6-(2-Ammonioethoxy)-3′,4′-difluoro-[1,1′-biphenyl]-3-ylcarboxamido)-4′-fluoro-[1,1′-biphenyl]-2-yl)oxy) ethanaminium chloride]: “more potent than 9 and 13”.

The same assay, now with this note: AlphaScreen assay, relative to compound 4.
In the case of `Cl.NCCCc1ccc(C(N)=O)cc1-c1ccc(F)cc1` [Compound 6, 3-(5-Carbamoyl-4′-fluoro-[1,1′-biphenyl]-2-yl) propan-1-aminium chloride], the “fold more potent than 4” value amounted to 5 fold.

Still in this assay, the particulars now being: AlphaScreen assay, relative to compound 17.
Regarding `Cc1ccc(NC(=O)c2ccc(C)c(-c3ccc(F)c(F)c3)c2)cc1-c1ccc(F)cc1` [Compound 19, 3′,4′-Difluoro-N-(4′-fluoro-6-methyl-[1,1′-biphenyl]-3-yl)-6-methyl-[1,1′-biphenyl]-3-carboxamide], the “fold less potent than 17” value is reported as 65 fold.

Still in this assay, the particulars now being: wild-type β-catenin (residues 138-686)/biotinylated BCL9 26-mer; Ki derived from IC50; mean ± SD.
On to `NC(=O)c1cccc(-c2cc(NC(=O)c3ccc(O[C@H]4CCNC4)c(-c4ccc(F)c(F)c4)c3)ccc2O[C@H]2CCNC2)c1` [Compound 91g, N-(3′-carbamoyl-6-((S)-pyrrolidin-3-yloxy)-[1,1′-biphenyl]-3-yl)-3′,4′-difluoro-6-((S)-pyrrolidin-3-yloxy)-[1,1′-biphenyl]-3-carboxamide dihydrochloride], for which the Ki stood at 162 ± 8.69 µM.
Same read-out and setting: the same measure for `O=C(O)c1ccc(-c2cc(NC(=O)c3ccc(O[C@H]4CCNC4)c(-c4ccc(F)c(F)c4)c3)ccc2O[C@H]2CCNC2)cc1` [Compound 99]: 156 ± 3.96 µM.
`Cc1cccc(-c2cc(NC(=O)c3ccc(O[C@H]4CCNC4)c(-c4ccc(F)c(F)c4)c3)ccc2O[C@H]2CCNC2)c1` [Compound 91b, 3′,4′-Difluoro-N-(3′-methyl-6-((S)-pyrrolidin-3-yloxy)-[1,1′-biphenyl]-3-yl)-6-((S)-pyrrolidin-3-yloxy)-[1,1′-biphenyl]-3-carboxamide dihydrochloride]: the Ki was found to be 40.8 ± 5.94 µM.
Consider `N#Cc1ccc(-c2cc(NC(=O)c3ccc(O[C@H]4CCNC4)c(-c4ccc(F)c(F)c4)c3)ccc2O[C@H]2CCNC2)cc1` [Compound 91f, N-(4′-cyano-6-((S)-pyrrolidin-3-yloxy)-[1,1′-biphenyl]-3-yl)-3′,4′-difluoro-6-((S)-pyrrolidin-3-yloxy)-[1,1′-biphenyl]-3-carboxamide dihydrochloride], for which the Ki was 29.5 ± 5.77 µM.
The same measure, in the same setting: as for `NCCOc1ccc(C(=O)Nc2cccc(-c3ccc(Cl)cc3F)c2)cc1-c1ccc(F)cc1` [Compound 12, 2-((5-((4′-Chloro-2′-fluoro-[1,1′-biphenyl]-3-yl)carbamoyl)-4′-fluoro-[1,1′-biphenyl]-2-yl)oxy) ethanaminium chloride], the figure is 149 ± 5.69 µM.
The same measure, in the same setting: the same measure for `N#Cc1cccc(-c2cc(NC(=O)c3ccc(O[C@H]4CCNC4)c(-c4ccc(F)c(F)c4)c3)ccc2O[C@H]2CCNC2)c1` [Compound 91e, N-(3′-cyano-6-((S)-pyrrolidin-3-yloxy)-[1,1′-biphenyl]-3-yl)-3′,4′-difluoro-6-((S)-pyrrolidin-3-yloxy)-[1,1′-biphenyl]-3-carboxamide dihydrochloride]: 25.9 ± 5.58 µM; for `O=C(Nc1cnc(O[C@H]2CCNC2)c(-c2ccc(F)cc2)c1)c1cnc(O[C@H]2CCNC2)c(-c2ccc(F)c(F)c2)c1` [Compound 84c, 5-(3,4-difluorophenyl)-N-(5-(4-fluorophenyl)-6-((S)-pyrrolidin-3-yloxy)pyridin-3-yl)-6-((S)-pyrrolidin-3-yloxy)nicotinamide dihydrochloride]: 68.6 ± 14.9 µM; for `O=C(Nc1ccc(O[C@H]2CCNC2)c(-c2ccc(F)cc2)c1)c1ccc(O[C@H]2CCNC2)c(-c2ccc(F)nc2)c1` [Compound 95, N-(4′-fluoro-6-((S)-pyrrolidin-3-yloxy)-[1,1′-biphenyl]-3-yl)-3-(6-fluoropyridin-3-yl)-4-((S)-pyrrolidin-3-yloxy)benzamide dihydrochloride]: 244 ± 13.3 µM.
Regarding `NCCOc1ccc(C(=O)Nc2cccc(-c3ccc(Cl)c(F)c3)c2)cc1-c1ccc(F)cc1` [Compound 11, 2-((5-((4′-Chloro-3′-fluoro-[1,1′-biphenyl]-3-yl)carbamoyl)-4′-fluoro-[1,1′-biphenyl]-2-yl)oxy) ethanaminium chloride], the Ki was found to be 87.1 ± 4.95 µM.
Same read-out and setting: as for `O=C(Nc1ccc(O[C@H]2CCNC2)c(-c2ccc(F)cc2)c1)c1ccc(O[C@H]2CCNC2)c(-c2ccc3cc(F)ccc3c2)c1` [Compound 96], the figure is 7.17 ± 1.3 µM; as for `CS(=O)(=O)Nc1cccc(-c2cc(NC(=O)c3ccc(O[C@H]4CCNC4)c(-c4ccc(F)c(F)c4)c3)ccc2O[C@H]2CCNC2)c1` [Compound 102], 126 ± 10.3 µM; as for `O=C(Nc1ccc(O[C@H]2CCNC2)c(-c2ccccc2C(F)(F)F)c1)c1ccc(O[C@H]2CCNC2)c(-c2ccc(F)c(F)c2)c1` [Compound 91d, 3′,4′-Difluoro-6-((S)-pyrrolidin-3-yloxy)-N-(6-((S)-pyrrolidin-3-yloxy)-2′-(trifluoromethyl)-[1,1′-biphenyl]-3-yl)-[1,1′-biphenyl]-3-carboxamide dihydrochloride], 54.8 ± 6.24 µM.
Take `Cl.NCCOc1ccc(C(=O)Nc2cccc(-c3ccc(F)cc3)c2)cc1-c1ccc(F)c(F)c1` [Compound 13, 2-((3′,4′-Difluoro-5-((4′-fluoro-[1,1′-biphenyl]-3-yl)carbamoyl)-[1,1′-biphenyl]-2-yl)oxy) ethanaminium chloride]: the Ki came out at 29.3 ± 3.85 µM.
The same measure, in the same setting: the same measure for `O=C(Nc1ccc(O[C@H]2CCNC2)c(-c2ccc(F)cc2)c1)c1ccc(O[C@H]2CCNC2)c(-c2ccc3ccsc3c2)c1` [Compound 97]: 9.5 ± 1.12 µM; for `O=C(Nc1ccc(O[C@H]2CCNC2)c(-c2ccc(F)cc2)c1)c1ccc(O[C@@H]2CCNC2)c(-c2ccc(F)c(F)c2)c1` [Compound 27, (R)-3-((3′,4′-difluoro-5-((4′-fluoro-6-(((S)-pyrrolidin-1-ium-3-yl)oxy)-[1,1′-biphenyl]-3-yl)carbamoyl)-[1,1′-biphenyl]-2-yl)oxy) pyrrolidin-1-ium chloride]: 5.6 ± 0.514 µM.
On to `O=C(Nc1ccc(O[C@H]2CCNC2)c(-c2ccc(F)nc2)c1)c1ccc(O[C@H]2CCNC2)c(-c2ccc(F)c(F)c2)c1` [Compound 91m, 3′,4′-Difluoro-N-(3-(6-fluoropyridin-3-yl)-4-((S)-pyrrolidin-3-yloxy)phenyl)-6-((S)-pyrrolidin-3-yloxy)-[1,1′-biphenyl]-3-carboxamide dihydrochloride], for which the Ki was found to be 124 ± 10.4 µM.
On to `Cl.Cl.NCCOc1ccc(NC(=O)c2ccc(OCCN)c(-c3ccc(F)c(F)c3)c2)cc1-c1ccc(F)cc1` [Compound 17, 2-((5-(6-(2-Ammonioethoxy)-3′,4′-difluoro-[1,1′-biphenyl]-3-ylcarboxamido)-4′-fluoro-[1,1′-biphenyl]-2-yl)oxy) ethanaminium chloride], for which the Ki was found to be 6.12 ± 1.53 µM.
As for `O=C(Nc1cnc(O[C@H]2CCNC2)c(-c2ccc(F)cc2)c1)c1ccc(O[C@H]2CCNC2)c(-c2ccc(F)c(F)c2)c1` [Compound 84a, 3′,4′-Difluoro-N-(5-(4-fluorophenyl)-6-((S)-pyrrolidin-3-yloxy)pyridin-3-yl)-6-((S)-pyrrolidin-3-yloxy)-[1,1′-biphenyl]-3-carboxamide dihydrochloride], the Ki was found to be 78.6 ± 10.4 µM.
